Test results from patent publication US11315778B2, “Spray chambers and methods of using them” (PERKINELMER HEALTH SCIENCES CANADA, INC., priority 2016, dated 2022).

How the values were obtained:
Type in all cases: cell-based
[1] = system: A2780 ovarian cancer cell line; test: Cisplatin uptake time course, single cell ICP-MS
Method: (§1) Cisplatin uptake in two ovarian cancer cell lines was evaluated using single particle ICP-MS (SP-ICP-MS). The ovarian cancer cell lines A2780 and A2780/CP70 were used in all experiments. Cells were grown in RPMI […] media (Gibco™) supplemented with 10% fetal bovine serum (FBS, Gibco™), insulin (Sigma-Aldrich™), 1-glutamine (Gibco™), and pen/strep (Gibco™) under 5% CO2 at 37° C. For serum starvation experiments, cells were plated and allowed to attach to the dishes. The media was removed and replaced with serum-free media for approximately 18 hours after which the media was replaced with regular media to begin cisplatin treatment. Cisplatin was re-suspended at 1 mg/mL in sterile saline and vigorously shaken for 30 minutes prior to treatment. Cells were treated with 30μM cisplatin for a time course where samples were collected at 1, 2, 4, and 8 hours post-treatment. For analysis, cells were washed twice with phosphate-buffered saline (PBS) and collected using the non-enzymatic cell dissociation solution Cellstripper (Corning™). Cells were centrifuged at 500×g for 10 minutes. The supernatant was discarded, and the cells were resuspended in 1 mL PBS, filtered through a 70μm nylon mesh, and quantitated by hemocytometer counting. Cells were diluted in PBS to a final concentration of 100,000 cells/mL and kept on ice until injection.
(§2) Analyses were performed with PerkinElmer's NexION® ICP-MS using the Syngistix™ Single Cell Application Software Module for data collection and processing. Instrumental conditions were as follows: sample uptake rate 0.04 mL/minute, 2.0 mm id quartz injector, 1600 Watts RF power, 0.36 L/minute nebulizer gas flow rate, 0.7 L/minute makeup gas flow rate, and a 60 second sample analysis time. A Meinhard HEN nebulizer and the spray chamber of FIG. 2 were also used (though the spray chambers of FIGS. 3, 4 and 5A-5D could be used instead). The Single Cell Sample Introduction Kit (Part No. N8150031) was used for sample introduction to the NexION. The kit consists of a high-efficiency nebulizer (Part No. N8142046) and the spray chamber designed for transport of cells to the plasma. Cells (1-100 microns) are larger than droplets which typically pass through conventional spray chambers (less than 2 microns).
(§3) Ionic platinum standards were prepared in PBS to matrix match the cell sample. A standard curve was generated using 1, 2, and 3 ppb platinum standard. Transport efficiency was determined using […] gold nanoparticles in PBS.
(§4) The cells chosen for this study are the ovarian cancer cell lines A2780 and A2780/CP70, which are good models for developing the single cell method since the molecular mechanism for resistance […]. A2780 is a cisplatin-sensitive cell line, while the A2780/CP70 line is cisplatin resistant. This resistance was developed by exposing the A2780 parental cell line to increasing doses of cisplatin. The A2780/CP70 cells developed resistance by reducing cisplatin uptake in addition to up-regulating DNA repair. We explored cisplatin uptake by performing a time course experiment to analyze how the distribution of cisplatin uptake changed over time within the cellular population. Both cell lines were treated for 1, 2, 4, and 8 hours with 30μM cisplatin. […] After the data is collected, the mass distribution peak can be integrated, as shown in FIG. 30C (frequency vs mass(ag)).
(§5) The time course data was summarized by fitting each histogram with a Log Normal curve. The mean intensity was determined for each time point and plotted to show the cisplatin uptake difference between A2780 and A2780/CP70 cells over time, as shown in FIG. 33.

[2] = system: A2780/CP70 ovarian cancer cell line; test: Cisplatin uptake time course, single cell ICP-MS
Method: as §1, §2, §3, §4, §5

[3] = system: ovarian cancer cell line (CP70); test: Single cell ICP-MS of cisplatin-exposed CP70 cells (195Pt monitored); settings: over the course of eight hours, FIG. 21
Method: A cell suspension can be nebulized by introducing the cell suspension through a nebulizer fluidically coupled to a spray chamber as described herein. The spray chamber can select individual cells and provide them to an inductively coupled plasma. As each cell enters the plasma, it is ionized, and the resulting ion burst from the intrinsic metal species is detected by a mass spectrometer. Each cell is treated the same as an individual particle. Cell concentrations can desirably be around 100,000 cell/mL to minimize coincidence—a situation where to cells are provided at the same time to the plasma.
To determine the effectiveness of detection of cisplatin using single cell ICP-MS using the spray chambers described herein, an ovarian cancer cell line (CP70) was exposed to cisplatin and monitored over time. Analyses were carried out on a PerkinElmer NexION 350 D ICP-MS with a 2 mm quartz injector and quartz torch operating with an RF power of 1600 W. A spray chamber as shown in FIG. 2 (though the spray chambers of FIGS. 3, 4 and 5A-5D could be used instead) can be used with a high efficiency concentric glass nebulizer (Meinhard) was used with the spray chamber and the NexION 350 D instrument.
Because background levels of Pt are non-existent and there are no common interferences on 195Pt, each spike represents Pt detected in an individual cell. […]

Compound: N.N.[Cl][Pt][Cl] [cisplatin]
- uptake of platinum ([1]; A2780, 30μM cisplatin, one hour of treatment): very little uptake of platinum
- effect of serum starvation on cisplatin uptake ([1]; A2780, serum-starved vs control cells, FIGS. 34A and 34B): no effect on the uptake of cisplatin
- cisplatin uptake over time (mean intensity of Log Normal fit) ([1]; A2780 vs A2780/CP70, 30μM cisplatin, 1-8 hours, FIG. 33): increased cisplatin uptake
- population of cells by cisplatin content, comparison of cell lines ([1]; A2780 vs A2780/CP70, 30μM cisplatin, eight hours): increased population of cells with more cisplatin than A2780/CP70
- uptake of platinum ([2]; A2780/CP70, 30μM cisplatin, one hour of treatment): very little uptake of platinum
- effect of serum starvation on cisplatin uptake ([2]; A2780/CP70, serum-starved vs control cells, FIGS. 34A and 34B): no effect on the uptake of cisplatin
- Pt content within cells (cisplatin uptake) [3]: increases over time
